In PubChem BioAssay AID248 (DTP/NCI, 2004):
Where “and” joins values, the source holds several entries; their conditions need not be identical. Identical values can stand only once. Toxic doses and inconclusive results are not listed. Rule as the data show it: active = T/C of 150% or more; inactive = T/C below 125%.

Test system: L1210 leukemia ip in BDF1 mice, survival T/C
Assay: NCI In Vivo Anticancer Drug Screen. Data for tumor model L1210 Leukemia (intraperitoneal) in B6D2F1 (BDF1) mice
Settings: endpoint: mean survival time, higher = longer survival
Method in brief: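 Tumor was transplanted into mice, which were then dosed with test compound or vehicle alone. Survival was recorded for each group, and the treated figure was expressed relative to the control figure.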

[1] = dose: 100.0 mg/kg/injection, schedule: Q04DX002 (ip), vehicle: saline
[2] = dose: 100.0 mg/kg/injection, schedule: Q04DX003 (ip), vehicle: saline
[3] = dose: 200.0 mg/kg/injection, schedule: Q04DX002 (ip), vehicle: saline
[4] = dose: 200.0 mg/kg/injection, schedule: Q04DX003 (ip), vehicle: saline
[5] = dose: 200.0 mg/kg/injection, schedule: Q01DX001 (ip), vehicle: Klucel (hydroxypropylcellulose) (HPC)
[6] = dose: 100.0 mg/kg/injection, schedule: Q01DX009 (ip), vehicle: saline
[7] = dose: 200.0 mg/kg/injection, schedule: Q01DX009 (ip), vehicle: saline
[8] = dose: 400.0 mg/kg/injection, schedule: Q01DX009 (ip), vehicle: saline
[9] = dose: 100.0 mg/kg/injection, schedule: Q01DX001 (ip), vehicle: saline
[10] = dose: 200.0 mg/kg/injection, schedule: Q01DX001 (ip), vehicle: saline
[11] = dose: 400.0 mg/kg/injection, schedule: Q01DX001 (ip), vehicle: saline
[12] = dose: 50.0 mg/kg/injection, schedule: Q01DX009 (ip), vehicle: saline
[13] = dose: 100.0 mg/kg/injection, schedule: Q01DX009 (ip), vehicle: saline with Tween-80

Measured: T/C

CC1OC1C1OC1C (configuration not stated)
inactive: [1] 109 % of control | [2] 104 % of control and 101 % of control and 97 % of control | [3] 109 % of control | [4] 108 % of control and 111 % of control and 95 % of control | dose: 400.0 mg/kg/injection, schedule: Q04DX002 (ip), vehicle: saline 109 % of control | dose: 400.0 mg/kg/injection, schedule: Q04DX003 (ip), vehicle: saline 111 % of control and 97 % of control and 98 % of control

Cc1ccc(Nc2nc(N)nc(N)c2N=O)cc1C
inactive: dose: 100.0 mg/kg/injection, schedule: Q01DX Z (ip), vehicle: methylcellulose (MC) 116 % of control | [5] 106 % of control | dose: 200.0 mg/kg/injection, schedule: Q01DX Z (ip), vehicle: methylcellulose (MC) 98 % of control

C/C(CC(=O)O)=C(\C)C(=O)O
inactive: dose: 100.0 mg/kg/injection, schedule: Q01DX009 (ip), vehicle: water 95 % of control | dose: 100.0 mg/kg/injection, schedule: Q04DX003 (ip), vehicle: water 96 % of control | dose: 200.0 mg/kg/injection, schedule: Q01DX009 (ip), vehicle: water 91 % of control | dose: 200.0 mg/kg/injection, schedule: Q04DX003 (ip), vehicle: water 102 % of control | dose: 400.0 mg/kg/injection, schedule: Q04DX003 (ip), vehicle: water 104 % of control

C=C1C(=O)OC2/C=C(\C)CC(O)/C=C(/C)CCC12 (configuration not stated)
inactive: dose: 12.5 mg/kg/injection, schedule: Q04DX003 (ip), vehicle: Klucel (hydroxypropylcellulose) (HPC) 96 % of control | dose: 25.0 mg/kg/injection, schedule: Q04DX003 (ip), vehicle: Klucel (hydroxypropylcellulose) (HPC) 105 % of control | dose: 50.0 mg/kg/injection, schedule: Q04DX003 (ip), vehicle: Klucel (hydroxypropylcellulose) (HPC) 100 % of control

OCCOCC#CCOCCO
inactive: [6] 102 % of control | [7] 96 % of control | [8] 98 % of control

CN(C)c1n[nH]c(=O)[nH]c1=O
inactive: [9] 91 % of control | [10] 114 % of control | [11] 93 % of control

N#CS/C=C\C(=O)O
inactive: dose: 3.12 mg/kg/injection, schedule: Q01DX001 (ip), vehicle: saline with Tween-80 95 % of control and 101 % of control | dose: 3.12 mg/kg/injection, schedule: Q01DX009 (ip), vehicle: saline with Tween-80 93 % of control | dose: 3.12 mg/kg/injection, schedule: Q04DX003 (ip), vehicle: saline with Tween-80 107 % of control | dose: 6.25 mg/kg/injection, schedule: Q01DX001 (ip), vehicle: saline with Tween-80 95 % of control and 101 % of control | dose: 6.25 mg/kg/injection, schedule: Q01DX009 (ip), vehicle: saline with Tween-80 98 % of control and 102 % of control | dose: 6.25 mg/kg/injection, schedule: Q04DX003 (ip), vehicle: saline with Tween-80 96 % of control and 100 % of control | dose: 12.5 mg/kg/injection, schedule: Q01DX001 (ip), vehicle: saline with Tween-80 94 % of control and 103 % of control and 105 % of control | dose: 12.5 mg/kg/injection, schedule: Q01DX009 (ip), vehicle: saline with Tween-80 95 % of control and 102 % of control | dose: 12.5 mg/kg/injection, schedule: Q04DX003 (ip), vehicle: saline with Tween-80 102 % of control and 103 % of control | dose: 25.0 mg/kg/injection, schedule: Q01DX001 (ip), vehicle: saline with Tween-80 94 % of control and 103 % of control | dose: 25.0 mg/kg/injection, schedule: Q01DX009 (ip), vehicle: saline with Tween-80 100 % of control and 92 % of control | dose: 25.0 mg/kg/injection, schedule: Q04DX003 (ip), vehicle: saline with Tween-80 93 % of control and 98 % of control | dose: 50.0 mg/kg/injection, schedule: Q01DX001 (ip), vehicle: saline with Tween-80 100 % of control | dose: 50.0 mg/kg/injection, schedule: Q04DX003 (ip), vehicle: saline with Tween-80 97 % of control

CN1NCc2cncnc21
inactive: dose: 50.0 mg/kg/injection, schedule: Q01DX001 (ip), vehicle: saline 97 % of control | [9] 103 % of control | [10] 101 % of control | [11] 103 % of control

O=CN1CCN(c2ccccc2)CC1
inactive: dose: 100.0 mg/kg/injection, schedule: Q04DX002 (ip), vehicle: Klucel (hydroxypropylcellulose) (HPC) 97 % of control | dose: 200.0 mg/kg/injection, schedule: Q04DX002 (ip), vehicle: Klucel (hydroxypropylcellulose) (HPC) 87 % of control | dose: 400.0 mg/kg/injection, schedule: Q04DX002 (ip), vehicle: Klucel (hydroxypropylcellulose) (HPC) 91 % of control

CCCCCCC1CCC(C(=O)O)CC1 (configuration not stated)
inactive: dose: 100.0 mg/kg/injection, schedule: Q01DX001 (ip), vehicle: Klucel (hydroxypropylcellulose) (HPC) 96 % of control | dose: 100.0 mg/kg/injection, schedule: Q01DX009 (ip), vehicle: Klucel (hydroxypropylcellulose) (HPC) 98 % of control | [5] 97 % of control | dose: 200.0 mg/kg/injection, schedule: Q01DX009 (ip), vehicle: Klucel (hydroxypropylcellulose) (HPC) 98 % of control | dose: 400.0 mg/kg/injection, schedule: Q01DX001 (ip), vehicle: Klucel (hydroxypropylcellulose) (HPC) 97 % of control | dose: 400.0 mg/kg/injection, schedule: Q01DX009 (ip), vehicle: Klucel (hydroxypropylcellulose) (HPC) 89 % of control

CCOC(=O)c1cc([N+](=O)[O-])cnc1C
inactive: dose: 100.0 mg/kg/injection, schedule: Q01DX001 (ip), vehicle: saline sonified 96 % of control | dose: 200.0 mg/kg/injection, schedule: Q01DX001 (ip), vehicle: saline sonified 96 % of control | dose: 400.0 mg/kg/injection, schedule: Q01DX001 (ip), vehicle: saline sonified 97 % of control

COc1ccc(Oc2cc(CC3c4cc(OC)c(OC)cc4CCN3C)c([N+](=O)[O-])cc2OC)cc1OC (configuration not stated)
inactive: dose: 12.5 mg/kg/injection, schedule: Q01DX009 (ip), vehicle: saline 93 % of control | dose: 25.0 mg/kg/injection, schedule: Q01DX009 (ip), vehicle: saline 102 % of control | [12] 96 % of control | [6] 108 % of control

CCOC(=O)CC(C(=O)OCC)C(C(=O)OCC)C(=O)OCC (configuration not stated)
inactive: dose: 50.0 mg/kg/injection, schedule: Q01DX009 (ip), vehicle: saline with Tween-80 111 % of control | [13] 101 % of control | dose: 200.0 mg/kg/injection, schedule: Q01DX009 (ip), vehicle: saline with Tween-80 101 % of control

O=c1/c(=C\c2ccc(Cl)c(Cl)c2)sc2n1CCN=2
inactive: [9] 86 % of control | [11] 93 % of control

CCCOCNC(=O)c1cccnc1
inactive: [9] 103 % of control | [6] 97 % of control | [10] 95 % of control | [7] 94 % of control | [11] 105 % of control | [8] 103 % of control

O=[N+]([O-])OCc1c(Cl)nc(Cl)c(Cl)c1Cl
inactive: dose: 20.0 mg/kg/injection, schedule: Q01DX009 (ip), vehicle: Klucel (hydroxypropylcellulose) (HPC) 103 % of control | dose: 40.0 mg/kg/injection, schedule: Q01DX009 (ip), vehicle: Klucel (hydroxypropylcellulose) (HPC) 92 % of control | dose: 100.0 mg/kg/injection, schedule: Q04DX003 (ip), vehicle: Klucel (hydroxypropylcellulose) (HPC) 92 % of control | dose: 200.0 mg/kg/injection, schedule: Q04DX003 (ip), vehicle: Klucel (hydroxypropylcellulose) (HPC) 100 % of control

CN(C)c1ccc(N(C)C)nn1
inactive: [13] 104 % of control

CCOCCC=O
inactive: [12] 97 % of control | [6] 91 % of control | [7] 91 % of control

CC(CC=O)CCCC(C)(C)O (configuration not stated)
inactive: [6] 102 % of control | [7] 102 % of control | [8] 93 % of control

CCC(=O)OCCOc1ccc(C(C)(C)C)cc1
inactive: dose: 50.0 mg/kg/injection, schedule: Q04DX002 (ip), vehicle: saline 98 % of control | [6] 98 % of control | [1] 94 % of control | [7] 103 % of control | [3] 91 % of control

CC(=O)C(C#N)C(C)=O.CC(=O)C(C#N)C(C)=O.[Mn]
inactive: [6] 107 % of control | [2] 105 % of control | [4] 102 % of control
